Measurements from US20250171404A1, “PCNA INHIBITORS AND USES THEREOF” (CITY OF HOPE, priority 2022, published 2025).

System: 7SM0032
Assay: Cell cycle analysis (PI, flow cytometry), nonmalignant cells
Type: cell-based, human
Settings: 500 nM; nonmalignant 7SM0032 cells
Procedure: FIGS. 3A-3D. Therapeutic properties of AOH1996. FIG. 3A: Normal cells (7SM0032) or cancer cells (SH-SY5Y and SK-N-BE(2)c) cells were fixed, stained with PI, and analyzed by flow cytometry following treatment with 500 nM AOH1996 for the indicated time. FIG. 3B: SK-N-DZ neuroblastoma cells and nonmalignant 7SM0032 stem cells were incubated with 500 nM AOH1996 for 24 h. Then, after being fixed on slides, cell apoptosis were analyzed by a TUNEL assay. Left: TMR fluorophore attached to the free ends of DNA indicates cells undergoing apoptosis. DAPI stained nuclei also shown. Right: Average abundance ±S.D. of apoptotic 7SM0032 (black histogram) and SK-N-DZ (grey histogram) cells relative to the total number of cells are shown in 5 randomly selected fields. FIG. 3C: Human SK-N-DZ neuroblastoma cells were treated with or without the indicated concentrations of cisplatin in the absence or presence of 500 nM of AOH1996 for 18 hours. […] The relative number of colonies determined in triplicates for each treatment condition were averaged and graphed ±SDs (*, P<0.01). […] Cell growth was measured as the percentage of cell confluence by imaging every 6 h for a total of 48 h.
Cell Cycle Analysis. […] PI fluorescence intensity of the cells was measured by flow cytometry and the data was analyzed using the FlowJo program.

COc1cccc(Oc2ccccc2NC(=O)CNC(=O)c2cccc3ccccc23)c1 [AOH1996, N-(2-((2-(3-methoxyphenoxy)phenyl)amino)-2-oxoethyl)-1-naphthamide]
change in cell-cycle profile: does not significantly change the cell-cycle profiles
